US7635722B1, “Chemical induced intracellular hyperthermia” (priority 1998, dated 2009)

Test system: peritoneal carcinomatosis, undifferentiated adenocarcinoma
Assay: DNP with vasopressor and chemotherapy, peritoneal carcinomatosis (Example 4)
Type: in vivo, human
Excerpt: It was elected to treat the patient with hyperthermochemotherapy. Treatment consisted of DNP, and combination chemotherapy with carboplatin, mitomycin, and doxifluridine. An α-1 adrenergic receptor agonist was used to minimize peripheral vascular dilation and heat loss.
Pretreatment protocol: the patient was transfused with three units of packed red blood cells. A Foley catheter was inserted on each day of treatment. They were covered in a water soaked blanket containing a polyethylene lining. A shower cap with towels was used to prevent heat loss from the head. Intravenous lines were placed into both arms with 19 gauge intracaths. EKG, heart rate, rectal thermistor, and V02 monitors were attached. Oxygen supplemented facemask and equipment was attached and data monitored as previously described under Example 1.
Treatment protocol: the patient was given chemotherapy […]. The total doses of carboplatin, and mitomycin were 450 mg and 24 mg IV respectively on day 1 and last day of week 6. Doxifluridine, 600 mg, was orally administered every day for 5 days and repeated the last 5 days of week 6. On the day of DNP infusion, baseline recordings were established for 10 minutes. Mephenteramine sulfate, 30 mg, was given by intramuscular injection. Ten minutes later their heart rate increased to 96 and […] V02 increased from 250 to 320 cc/min. V02, heart rate and blood pressure stabilized after 20 minutes and they were given an initial dose of 1 mg/kg DNP. Additional 0.5 mg/kg infusions of DNP were administered in 3 successive infusions spaced 20 minutes apart. […] The DNP treatment protocol was repeated every fourth day for a period of 6 weeks.

Compound: O=[N+]([O-])c1ccc(O)c([N+](=O)[O-])c1 [DNP, 2,4-dinitrophenol]
- magnetic resonance imaging and echo of the abdomen (after combined treatments): complete resolution of peritoneal metastasis
- ascites (end of the sixth week, DNP with carboplatin, mitomycin, doxifluridine): resolved
- survival (nine and a half months after treatment): alive without any evidence of tumor reoccurrence
- serum levels of amylase and all tumor markers (week 6, combined treatments): normal at week 6
